From ChEMBL document CHEMBL1201861, “Genomics of Drug Sensitity in Cancer screening data, Wellcome Trust Sanger Institute”
pIC50: −log10 of the molar value.

Experiments:
Experiment in all cases: cells
Assay type in all cases: functional, cell-based, Homo sapiens
COLO-679 = settings: Homo sapiens, COLO-679
Description: SANGER: Inhibition of human COLO-679 cell growth in a cell viability assay.

NCI-H2347 = settings: Homo sapiens, NCI-H2347
Description: SANGER: Inhibition of human NCI-H2347 cell growth in a cell viability assay.

Detroit 562 = settings: Homo sapiens, Detroit 562
Description: SANGER: Inhibition of human Detroit562 cell growth in a cell viability assay.

ZR-75-30 = settings: Homo sapiens, ZR-75-30
Description: SANGER: Inhibition of human ZR-75-30 cell growth in a cell viability assay.

T-24 = settings: Homo sapiens, T-24
Description: SANGER: Inhibition of human T-24 cell growth in a cell viability assay.

JEG-3 = settings: Homo sapiens, JEG-3
Description: SANGER: Inhibition of human JEG-3 cell growth in a cell viability assay.

PFSK-1 = settings: Homo sapiens, PFSK-1
Description: SANGER: Inhibition of human PFSK-1 cell growth in a cell viability assay.

8505C = settings: Homo sapiens, 8505C
Description: SANGER: Inhibition of human 8505C cell growth in a cell viability assay.

Ca9-22 = settings: Homo sapiens, Ca9-22
Description: SANGER: Inhibition of human Ca9-22 cell growth in a cell viability assay.

UMUC3 = settings: Homo sapiens, UMUC3
Description: SANGER: Inhibition of human UM-UC-3 cell growth in a cell viability assay.

MCF7 = settings: Homo sapiens, MCF7
Description: SANGER: Inhibition of human MCF7 cell growth in a cell viability assay.

HuP-T3 = settings: Homo sapiens, HuP-T3
Description: SANGER: Inhibition of human HuP-T3 cell growth in a cell viability assay.

HSC-2 = settings: Homo sapiens, HSC-2
Description: SANGER: Inhibition of human HSC-2 cell growth in a cell viability assay.

NCI-H596 = settings: Homo sapiens, NCI-H596
Description: SANGER: Inhibition of human NCI-H596 cell growth in a cell viability assay.

UACC-893 = settings: Homo sapiens, UACC-893
Description: SANGER: Inhibition of human UACC-893 cell growth in a cell viability assay.

SW756 = settings: Homo sapiens, SW756
Description: SANGER: Inhibition of human SW756 cell growth in a cell viability assay.

LK-2 = settings: Homo sapiens, LK-2
Description: SANGER: Inhibition of human LK-2 cell growth in a cell viability assay.

NCI-H727 = settings: Homo sapiens, NCI-H727
Description: SANGER: Inhibition of human NCI-H727 cell growth in a cell viability assay.

5637 = settings: Homo sapiens
Description: SANGER: Inhibition of human 5637 cell growth in a cell viability assay.

AN3-CA = settings: Homo sapiens, AN3-CA
Description: SANGER: Inhibition of human AN3-CA cell growth in a cell viability assay.

KYSE-450 = settings: Homo sapiens, KYSE-450
Description: SANGER: Inhibition of human KYSE-450 cell growth in a cell viability assay.

NCI-H630 = settings: Homo sapiens, NCI-H630
Description: SANGER: Inhibition of human NCI-H630 cell growth in a cell viability assay.

DMS-273 = settings: Homo sapiens, DMS-273
Description: SANGER: Inhibition of human DMS-273 cell growth in a cell viability assay.

CAKI-1 = settings: Homo sapiens, CAKI-1
Description: SANGER: Inhibition of human CAKI-1 cell growth in a cell viability assay.

NCI-H1437 = settings: Homo sapiens, NCI-H1437
Description: SANGER: Inhibition of human NCI-H1437 cell growth in a cell viability assay.

NCI-H1651 = settings: Homo sapiens, NCI-H1651
Description: SANGER: Inhibition of human NCI-H1651 cell growth in a cell viability assay.

KNS-62 = settings: Homo sapiens, KNS-62
Description: SANGER: Inhibition of human KNS-62 cell growth in a cell viability assay.

NCI-H661 = settings: Homo sapiens, NCI-H661
Description: SANGER: Inhibition of human NCI-H661 cell growth in a cell viability assay.

SCC-25 = settings: Homo sapiens, SCC-25
Description: SANGER: Inhibition of human SCC-25 cell growth in a cell viability assay.

ChaGo-K-1 = settings: Homo sapiens, ChaGo-K-1
Description: SANGER: Inhibition of human ChaGo-K-1 cell growth in a cell viability assay.

HCC1806 = settings: Homo sapiens, HCC1806
Description: SANGER: Inhibition of human HCC1806 cell growth in a cell viability assay.

HGC-27 = settings: Homo sapiens, HGC-27
Description: SANGER: Inhibition of human HGC-27 cell growth in a cell viability assay.

RO82-W-1 = settings: Homo sapiens, RO82-W-1
Description: SANGER: Inhibition of human RO82-W-1 cell growth in a cell viability assay.

Hs-578T = settings: Homo sapiens, Hs-578T
Description: SANGER: Inhibition of human Hs-578-T cell growth in a cell viability assay.

PANC-03-27 = settings: Homo sapiens, PANC-03-27
Description: SANGER: Inhibition of human PANC-03-27 cell growth in a cell viability assay.

SW626 = settings: Homo sapiens, SW626
Description: SANGER: Inhibition of human SW626 cell growth in a cell viability assay.

KYSE-70 cell line = settings: Homo sapiens, KYSE-70
Description: SANGER: Inhibition of human KYSE-70 cell growth in a cell viability assay.

EVSA-T = settings: Homo sapiens, EVSA-T
Description: SANGER: Inhibition of human EVSA-T cell growth in a cell viability assay.

Daudi = settings: Homo sapiens, Daudi
Description: SANGER: Inhibition of human Daudi cell growth in a cell viability assay.

TE-15 = settings: Homo sapiens, TE-15
Description: SANGER: Inhibition of human TE-15 cell growth in a cell viability assay.

NCI-H1436 = settings: Homo sapiens, NCI-H1436
Description: SANGER: Inhibition of human NCI-H1436 cell growth in a cell viability assay.

PF-382 = settings: Homo sapiens, PF-382
Description: SANGER: Inhibition of human PF-382 cell growth in a cell viability assay.

OPM-2 = settings: Homo sapiens, OPM-2
Description: SANGER: Inhibition of human OPM-2 cell growth in a cell viability assay.

Kasumi 1 = settings: Homo sapiens, Kasumi 1
Description: SANGER: Inhibition of human KASUMI-1 cell growth in a cell viability assay.

GDM-1 = settings: Homo sapiens, GDM-1
Description: SANGER: Inhibition of human GDM-1 cell growth in a cell viability assay.

BOKU = settings: Homo sapiens, BOKU
Description: SANGER: Inhibition of human BOKU cell growth in a cell viability assay.

EHEB = settings: Homo sapiens, EHEB
Description: SANGER: Inhibition of human EHEB cell growth in a cell viability assay.

NCI-H2141 = settings: Homo sapiens, NCI-H2141
Description: SANGER: Inhibition of human NCI-H2141 cell growth in a cell viability assay.

## CC1(C)CNc2cc(NC(=O)c3cccnc3NCc3ccncc3)ccc21 [MOTESANIB]
COLO-679
  pIC50: < 5.70
NCI-H2347
  pIC50: < 5.70
Detroit 562
  pIC50: < 5.70
ZR-75-30
  pIC50: < 5.70
T-24
  pIC50: < 5.70
JEG-3
  pIC50: < 5.70
PFSK-1
  pIC50: < 5.70
8505C
  pIC50: < 5.70
Ca9-22
  pIC50: < 5.70
UMUC3
  pIC50: < 5.70
MCF7
  pIC50: < 5.70
HuP-T3
  pIC50: < 5.70
HSC-2
  pIC50: < 5.70
NCI-H596
  pIC50: < 5.70
UACC-893
  pIC50: < 5.70
SW756
  pIC50: < 5.70
LK-2
  pIC50: < 5.70
NCI-H727
  pIC50: < 5.70
5637
  pIC50: < 5.70
AN3-CA
  pIC50: < 5.70
KYSE-450
  pIC50: < 5.70
NCI-H630
  pIC50: < 5.70
DMS-273
  pIC50: < 5.70
CAKI-1
  pIC50: < 5.70
NCI-H1437
  pIC50: < 5.70
NCI-H1651
  pIC50: < 5.70
KNS-62
  pIC50: < 5.70
NCI-H661
  pIC50: < 5.70
SCC-25
  pIC50: < 5.70
ChaGo-K-1
  pIC50: < 5.70
HCC1806
  pIC50: < 5.70
HGC-27
  pIC50: < 5.70
RO82-W-1
  pIC50: < 5.70
Hs-578T
  pIC50: < 5.70
PANC-03-27
  pIC50: < 5.70
SW626
  pIC50: < 5.70
KYSE-70 cell line
  pIC50: < 5.70

## CC(=O)O[C@H]1C(=O)[C@@]2(C)[C@H]([C@H](OC(=O)c3ccccc3)[C@]3(O)C[C@H](OC(=O)[C@H](O)[C@@H](NC(=O)c4ccccc4)c4ccccc4)C(C)=C1C3(C)C)[C@]1(OC(C)=O)CO[C@@H]1C[C@@H]2O [PACLITAXEL]
EVSA-T
  pIC50: 7.41
Daudi
  pIC50: 7.77
TE-15
  pIC50: 9.54
NCI-H1436
  pIC50: 7.91
PF-382
  pIC50: 7.62
OPM-2
  pIC50: 7.44
Kasumi 1
  pIC50: < 6.99
GDM-1
  pIC50: < 6.99
BOKU
  pIC50: < 6.99
EHEB
  pIC50: < 6.99
NCI-H2141
  pIC50: 7.09

## N[C@@H](CSC(c1ccccc1)(c1ccccc1)c1ccccc1)C(=O)O [S-TRITYL-L-CYSTEINE]
EVSA-T
  pIC50: 5.47
Daudi
  pIC50: 5.93
TE-15
  pIC50: 5.99
NCI-H1436
  pIC50: 6.05
PF-382
  pIC50: 5.78
OPM-2
  pIC50: 5.48
Kasumi 1
  pIC50: < 5.29
GDM-1
  pIC50: 5.60
BOKU
  pIC50: < 5.29
EHEB
  pIC50: < 5.29
NCI-H2141
  pIC50: 5.36

## Cn1cnc2c(F)c(Nc3ccc(Br)cc3Cl)c(C(=O)NOCCO)cc21 [SELUMETINIB]
COLO-679
  pIC50: 6.47
NCI-H2347
  pIC50: < 5.40
Detroit 562
  pIC50: < 5.40
ZR-75-30
  pIC50: < 5.40
T-24
  pIC50: < 5.40
JEG-3
  pIC50: < 5.40
PFSK-1
  pIC50: < 5.40
8505C
  pIC50: < 5.40
Ca9-22
  pIC50: 5.62
MCF7
  pIC50: < 5.40
HuP-T3
  pIC50: < 5.40
HSC-2
  pIC50: < 5.40
NCI-H596
  pIC50: < 5.40
SW756
  pIC50: < 5.40
LK-2
  pIC50: < 5.40
NCI-H727
  pIC50: < 5.40
5637
  pIC50: < 5.40
AN3-CA
  pIC50: < 5.40
KYSE-450
  pIC50: < 5.40
NCI-H630
  pIC50: < 5.40
DMS-273
  pIC50: < 5.40
CAKI-1
  pIC50: < 5.40
NCI-H1437
  pIC50: 6.45
NCI-H1651
  pIC50: < 5.40
KNS-62
  pIC50: < 5.40
NCI-H661
  pIC50: < 5.40
SCC-25
  pIC50: < 5.40
ChaGo-K-1
  pIC50: < 5.40
HCC1806
  pIC50: < 5.40
HGC-27
  pIC50: < 5.40
RO82-W-1
  pIC50: < 5.40
Hs-578T
  pIC50: < 5.40
PANC-03-27
  pIC50: < 5.40
SW626
  pIC50: < 5.40
KYSE-70 cell line
  pIC50: < 5.40

## CCN(CC)CCNC(=O)c1c(C)[nH]c(/C=C2\C(=O)Nc3ccc(F)cc32)c1C [SUNITINIB]
EVSA-T
  pIC50: < 5.10
Daudi
  pIC50: < 5.10
TE-15
  pIC50: 6.29
NCI-H1436
  pIC50: < 5.10
PF-382
  pIC50: 5.46
OPM-2
  pIC50: 5.51
Kasumi 1
  pIC50: < 5.10
GDM-1
  pIC50: < 5.10
BOKU
  pIC50: < 5.10
EHEB
  pIC50: < 5.10
NCI-H2141
  pIC50: < 5.10
